We go through 53 compounds from ChEMBL document CHEMBL1944551, “An integrated computational workflow for efficient and quantitative modeling of renin inhibitors” (Bioorg Med Chem, 2012).

A short description of this series: physchem. Conditions: octanol/buffer.
Usually logP stands for a log measure of how a compound divides between an organic and an aqueous phase. A higher logP goes with a more lipophilic compound. As for `COc1ccccc1COCCCOc1ccc(N2C(=O)CNC[C@@H]2C(=O)N(C)CCc2ccccc2)cc1`, the logP worked out at 3.9.

Consider `COc1ccccc1COCCCOc1ncc(N2C(=O)CNC[C@@H]2C(=O)N(C)CCc2ccccc2)cn1`, for which the lipophilicity (logP) was found to be 1.89. Then `CN(CCc1ccccc1)C(=O)[C@H]1CNCC(=O)N1c1ccc(CCCOc2cccc(Cl)c2)cc1`, with 4.75. `CN(CCc1ccccc1)C(=O)[C@H]1CNCC(=O)N1c1ccc(CCCOc2c(F)ccc(F)c2F)cc1` returned a logP of 4.57.

`Cc1cc(Cl)c(OCCOc2ccc(N3C(=O)CNC[C@@H]3C(=O)N(C)CCCc3ccccc3)cc2)c(Cl)c1` showed a log partition coefficient (logP) of 5.12. As for `Cc1cc(Cl)c(OCCOc2ccc(N3C(=O)CNC[C@@H]3C(=O)N(C)CCCc3ccccc3)cn2)c(Cl)c1`, the figure is 4.29; as for `CN(CCCc1ccccc1)C(=O)[C@H]1CNCC(=O)N1c1ccc(COC(=O)c2ccccc2)cc1`, 4.02. As for `CN(CCCc1ccccc1)C(=O)[C@H]1CNCC(=O)N1c1ccc(OCCCOCc2ccccc2)cc1`, the figure is 4.39; as for `COc1ccccc1COCCCOc1ccc(N2C(=O)CNC[C@@H]2C(=O)N(C)CCCc2ccccc2)cc1`, 4.35. In turn, `COc1ccccc1COCCCOc1ncc(N2C(=O)CNC[C@@H]2C(=O)N(C)CCCc2ccccc2)cn1` yielded a logP of 2.34.

On to `Cc1cc(Cl)c(OCCOc2ccc(N3C(=O)CNC[C@@H]3C(=O)N(Cc3cccc(Cl)c3)C3CC3)cn2)c(Cl)c1`, for which the logP turned out to be 5.04. Take `O=C(OCc1ccc(N2C(=O)CNC[C@@H]2C(=O)N(Cc2cccc(Cl)c2)C2CC2)cc1)c1ccccc1`: the logP turned out to be 4.77.

Consider `O=C([C@H]1CNCC(=O)N1c1ccc(OCCCOCc2ccccc2)cc1)N(Cc1cccc(Cl)c1)C1CC1`, for which the logP was 5.14.

`COc1ccccc1COCCCOc1ccc(N2C(=O)CNC[C@@H]2C(=O)N(Cc2cccc(Cl)c2)C2CC2)cc1` came in with a logP of 5.1. `COc1ccccc1COCCCOc1ncc(N2C(=O)CNC[C@@H]2C(=O)N(Cc2cccc(Cl)c2)C2CC2)cn1` displayed a logP of 3.09. Turning to `O=C([C@H]1CNCC(=O)N1c1ccc(CCCOc2cccc(Cl)c2)cc1)N(Cc1cccc(Cl)c1)C1CC1`, the logP was determined as 5.94. Consider `O=C([C@H]1CNCC(=O)N1c1ccc(CCCOc2c(F)ccc(F)c2F)cc1)N(Cc1cccc(Cl)c1)C1CC1`, for which the logP was 5.77. This logP and that of the compound before are within 0.2 log units of each other. Then `Cc1cc(Cl)c(OCCOc2ccc(N3C(=O)CNC[C@@H]3C(=O)N(Cc3cccc(C)c3C)C3CC3)cc2)c(Cl)c1`, with 5.83. `Cc1cc(Cl)c(OCCOc2ccc(N3C(=O)CNC[C@@H]3C(=O)N(Cc3cccc(C)c3C)C3CC3)cn2)c(Cl)c1` yielded a logP of 5.01. In the case of `Cc1cccc(CN(C(=O)[C@H]2CNCC(=O)N2c2ccc(COC(=O)c3ccccc3)cc2)C2CC2)c1C`, the lipophilicity (logP) amounted to 4.73. Take `Cc1cccc(CN(C(=O)[C@H]2CNCC(=O)N2c2ccc(OCCCOCc3ccccc3)cc2)C2CC2)c1C`: the logP came out at 5.11. Then `COc1ccccc1COCCCOc1ccc(N2C(=O)CNC[C@@H]2C(=O)N(Cc2cccc(C)c2C)C2CC2)cc1`, with 5.06; and `COc1ccccc1COCCCOc1ncc(N2C(=O)CNC[C@@H]2C(=O)N(Cc2cccc(C)c2C)C2CC2)cn1`, with 3.05; and `Cc1cccc(CN(C(=O)[C@H]2CNCC(=O)N2c2ccc(CCCOc3cccc(Cl)c3)cc2)C2CC2)c1C`, with 5.91. With `Cc1cccc(CN(C(=O)[C@H]2CNCC(=O)N2c2ccc(CCCOc3c(F)ccc(F)c3F)cc2)C2CC2)c1C`, the logP came out at 5.73. This logP and that of the compound before are within 0.2 log units of each other.

Turning to `COc1cccc(CN(C(=O)[C@H]2CNCC(=O)N2c2ccc(OCCOc3c(Cl)cc(C)cc3Cl)cc2)C2CC2)c1C`, the logP worked out at 5.49. Turning to `COc1cccc(CN(C(=O)[C@H]2CNCC(=O)N2c2ccc(OCCOc3c(Cl)cc(C)cc3Cl)nc2)C2CC2)c1C`, the logP was determined as 4.66. `COc1cccc(CN(C(=O)[C@H]2CNCC(=O)N2c2ccc(COC(=O)c3ccccc3)cc2)C2CC2)c1C` displayed a logP of 4.39.

Compound `COc1cccc(CN(C(=O)[C@H]2CNCC(=O)N2c2ccc(OCCCOCc3ccccc3)cc2)C2CC2)c1C` displayed a logP of 4.76. As for `COc1ccccc1COCCCOc1ccc(N2C(=O)CNC[C@@H]2C(=O)N(Cc2cccc(OC)c2C)C2CC2)cc1`, the figure is 4.72; as for `COc1ccccc1COCCCOc1ncc(N2C(=O)CNC[C@@H]2C(=O)N(Cc2cccc(OC)c2C)C2CC2)cn1`, 2.71. Then `COc1cccc(CN(C(=O)[C@H]2CNCC(=O)N2c2ccc(CCCOc3cccc(Cl)c3)cc2)C2CC2)c1C`, with 5.56. Regarding `COc1cccc(CN(C(=O)[C@H]2CNCC(=O)N2c2ccc(CCCOc3c(F)ccc(F)c3F)cc2)C2CC2)c1C`, the logP is 5.39.

The compound `Cc1cc(Cl)c(OCCOc2ccc(N3C(=O)CNC[C@@H]3C(=O)N(Cc3cccc(Cl)c3Cl)C3CC3)cc2)c(Cl)c1` came in with a log partition coefficient (logP) of 6.42. Then `Cc1cc(Cl)c(OCCOc2ccc(N3C(=O)CNC[C@@H]3C(=O)N(Cc3cccc(Cl)c3Cl)C3CC3)cn2)c(Cl)c1`, with 5.59.

Regarding `O=C(OCc1ccc(N2C(=O)CNC[C@@H]2C(=O)N(Cc2cccc(Cl)c2Cl)C2CC2)cc1)c1ccccc1`, the logP was 5.32.

In turn, `O=C([C@H]1CNCC(=O)N1c1ccc(OCCCOCc2ccccc2)cc1)N(Cc1cccc(Cl)c1Cl)C1CC1` displayed a logP of 5.7. Then `COc1ccccc1COCCCOc1ccc(N2C(=O)CNC[C@@H]2C(=O)N(Cc2cccc(Cl)c2Cl)C2CC2)cc1`, with 5.65; and `COc1ccccc1COCCCOc1ncc(N2C(=O)CNC[C@@H]2C(=O)N(Cc2cccc(Cl)c2Cl)C2CC2)cn1`, with 3.64; and `O=C([C@H]1CNCC(=O)N1c1ccc(CCCOc2cccc(Cl)c2)cc1)N(Cc1cccc(Cl)c1Cl)C1CC1`, with 6.49. Then `O=C([C@H]1CNCC(=O)N1c1ccc(CCCOc2c(F)ccc(F)c2F)cc1)N(Cc1cccc(Cl)c1Cl)C1CC1`, with 6.32; and `Cc1cc(Cl)c(OCCOc2ccc(N3C(=O)CNC[C@@H]3C(=O)NCc3ccccc3)cc2)c(Cl)c1`, with 4.39. As for `Cc1cc(Cl)c(OCCOc2ccc(N3C(=O)CNC[C@@H]3C(=O)NCc3ccccc3)cn2)c(Cl)c1`, the figure is 3.56; as for `O=C(OCc1ccc(N2C(=O)CNC[C@@H]2C(=O)NCc2ccccc2)cc1)c1ccccc1`, 3.29.

The compound `O=C(NCc1ccccc1)[C@H]1CNCC(=O)N1c1ccc(OCCCOCc2ccccc2)cc1` had a logP of 3.67. `COc1ccccc1COCCCOc1ccc(N2C(=O)CNC[C@@H]2C(=O)NCc2ccccc2)cc1`: the logP is 3.62. Then `COc1ccccc1COCCCOc1ncc(N2C(=O)CNC[C@@H]2C(=O)NCc2ccccc2)cn1`, with 1.61; and `O=C(NCc1ccccc1)[C@H]1CNCC(=O)N1c1ccc(CCCOc2cccc(Cl)c2)cc1`, with 4.46; and `O=C(NCc1ccccc1)[C@H]1CNCC(=O)N1c1ccc(CCCOc2c(F)ccc(F)c2F)cc1`, with 4.29. The compound `Cc1cc(Cl)c(OCCOc2ccc(N3C(=O)CNC[C@@H]3C(=O)N(C)CCc3ccccc3)cc2)c(Cl)c1` displayed a logP of 4.68.

Regarding `Cc1cc(Cl)c(OCCOc2ccc(N3C(=O)CNC[C@@H]3C(=O)N(C)CCc3ccccc3)cn2)c(Cl)c1`, the logP was 3.85. Regarding `CN(CCc1ccccc1)C(=O)[C@H]1CNCC(=O)N1c1ccc(COC(=O)c2ccccc2)cc1`, the logP amounted to 3.58. On to `CN(CCc1ccccc1)C(=O)[C@H]1CNCC(=O)N1c1ccc(OCCCOCc2ccccc2)cc1`, for which the logP amounted to 3.95.
